# US6069167A, “Use of antioxidant agents to treat cholestatic liver disease” (priority 1997, dated 2000)
# Like-named read-outs stand apart in the source and are kept apart here.
# Experiments:
# hepatic mitochondria = assay: Lipid-conjugated dienes of hepatic mitochondria (lipid peroxidation); assay type: in vivo, male Sprague-Dawley rats; settings: for Lipid-conjugated dienes: 4 h
# Method: Hepatic Mitochondria Isolation
# Mitochondria were isolated from 10 grams of fresh liver from individual rats by a modification of a previously described method^27. Briefly, the liver was gently homogenized in a loose-fitting Potter-Elvehjm homogenizer in buffer containing 225 mM mannitol, 70 mM sucrose, 3 mM KH2 PO4, 2mM EDTA, 0.1% BSA, 5 mM MgCl2 (pH 7.0), filtered through cheesecloth and centrifuged at 400g×10 minutes. The supernatant was centrifuged at 10,000g for 10 minutes. The supernatant was aspirated and the pellet resuspended and centrifuged at 10,000g for 10 minutes. The resulting mitochondrial pellet was resuspended in 15 ml of buffer, divided into three tubes and added to digitonin (Sigma Chemical Company, St Louis, Mo., 0.29 mg for each gram of original liver) on wet ice×20 minutes, in order to minimize any contamination by lysosomes^28. The resulting mitochondrial preparation was washed two times in the original buffer and centrifuged at 10,000g for 10 minutes. Samples of the pellet were taken for enzyme marker analysis. Two more washes were then performed using a buffer containing 50 mM MOPS/100 mM KCI, yielding the final mitochondrial pellet.
# Fresh mitochondria were analyzed for lipid peroxidation as an index of oxidant damage by the lipid-conjugated diene method of Recknagel and Ghoshal^35 with the modification of Bacon et al^36. Briefly, lipids were extracted from mitochondria pellets with chloroform and methanol (2:1, vol/vol), and the lipid in chloroform was dried under a stream of oxygen-free nitrogen^27. The dried lipid was redissolved in 1.5 ml of spectrophotometric grade cyclohexane. Absorbance from 220 to 275 nm was recorded against a cyclohexane blank on a Lambda 2 UV/is Spectrometer (Perkin-Elmer Corp., Norwalk, Conn.). Lipid concentration was approximately 0.5 mg/mi of cyclohexane. After the UV measurements, a 250 μl aliquot from each sample was analyzed for total lipid content by the method of Chiang et al.^37, and absorbance measurements were normalized to a denominator of 1.0 mg lipid per ml of cyclohexane. Lipid peroxidation was estimated by calculating the difference in absorption at 233 nm (the peak absorbance for conjugated dienes) between each rat and the mean of the values from control rats.
# Because serum AST and ALT concentrations peaked at 4 hours, further evaluation of liver injury was performed at that time point Total concentrations (conjugated+free bile acids) of individual bile acids were measured in serum obtained at 4 hours by gas chromatography-mass spectroscopy (GC-MS), as previously described^30. Briefly, after serum samples were extracted with the addition of the internal standard 7-alpha, 12-alpha, dihydroxy-5 beta cholanic acid, trimethylsilyl esterification was performed. Individual bile acids were then quantified by GC or GC-MS using a Hewlett-Packard 5790 flame ionization detector equipped with a 30 meter DB-1 capillary column with internal diameter of 0.25 mm and a film thickness of 0.25 micrometers (J & W Scientific, Folsom, Calif.). For GC-MS measurements, a Hewlett-Packard 5970-A mass selective detector operating in selective ion monitoring mode was used. Results were expressed as μmol/L for each individual bile acid.
# Rats were divided into two treatment groups. One group was pretreated with parenteral Vitamin E (all-rac-alpha tocopherol, Ephynal, Hoffmann-LaRoche,Nutley, N.J.). The other group was not pretreated. […]
# TCDC hepatic toxicity = assay type: in vivo, male Sprague-Dawley rats
# Description: Young adult male Sprague-Dawley rats (150-180 gram weight) purchased from Sasco, Inc. (Omaha, Nebr.) were fed Purina Lab Chow (Ralston Purina Co., Chicago, Ill.) ad libitum for 2-3 weeks and housed in polyethylene cages with stainless steel tops on a 12-hour light-dark cycle. All rats received humane care in compliance with the guidelines of the Animal Use in Research Committee of the University of Colorado Health Sciences Center. […] TCDC is a conjugate of the bile acid most implicated in cholestatic liver injury9,11,12. TCDC was solubilized in 5% dextrose, 10% BSA, and 0.45% normal saline. TCDC was administered while rats were under light methoxyflurane anesthesia as an intravenous bolus of the desired dose in 1 to 2 minutes through the tail vein. TCDC dosing was performed between 7 and 9 am. […] Rats were divided into two treatment groups. One group was pretreated with parenteral Vitamin E (all-rac-alpha tocopherol, […], Hoffmann-LaRoche,Nutley, N.J.). The other group was not pretreated. These rats then received either vehicle or TCDC (10 μmol/[…]) by tail vein injection (as described in Example 1). […] All i.p. injections were administered under light methoxyflurane anesthesia. Following the vitamin E or saline injections, rats were randomly assigned to receive a tail vein bolus injection of either TCDC or vehicle. Rats were sacrificed four hours later and serum was analyzed for AST, ALT, total bilirubin and alkaline phosphatase. […] The serum alpha tocopherol:total lipids ratio (mg/gm) was calculated as an additional index of vitamin E status^41.
# in vivo = assay: in vivo; design: species or system male Sprague-Dawley rats; settings: rat
# Method: Rats were divided into two treatment groups. One group was pretreated with parenteral Vitamin E (all-rac-alpha tocopherol, […], Hoffmann-LaRoche,Nutley, N.J.). The other group was not pretreated. These rats then received either vehicle or TCDC (10 μmol/[…]) by tail vein injection (as described in Example 1). […] All i.p. injections were administered under light methoxyflurane anesthesia. Following the vitamin E or saline injections, rats were randomly assigned to receive a tail vein bolus injection of either TCDC or vehicle. Rats were sacrificed four hours later and serum was analyzed for AST, ALT, total bilirubin and alkaline phosphatase. […] The serum alpha tocopherol:total lipids ratio (mg/gm) was calculated as an additional index of vitamin E status^41. The liver was rapidly removed at sacrifice, the hepatic mitochondria were isolated as set forth above and analyzed for lipid-conjugated dienes as described above. A specimen of liver was also immediately frozen, protected from light and stored at -70° C. and subsequently analyzed for alpha tocopherol and reduced ubiquinol-9 by HPLC with electrochemical detection^42. The results were expressed as nmol alpha tocopherol or nmol reduced ubiquinol-9 per gram wet weight of liver.
# cholestatic disorders = settings: cited from earlier work
# [1] = parenteral vitamin E pretreatment, rats receiving TCDC
Structure (SMILES),"Lipid-conjugated dienes (hepatic mitochondria; Vitamin E/TCDC, n = 12)","Lipid-conjugated dienes (hepatic mitochondria; Vitamin E/Vehicle, n = 7)","Mitochondrial lipid-conjugated dienes, change (hepatic mitochondria; vitamin E pretreatment, i.v. TCDC group)","ALT (TCDC hepatic toxicity; Vitamin E/TCDC, n = 12, 4 h)","AST (TCDC hepatic toxicity; Vitamin E/TCDC, n = 12, 4 h)","Bilirubin (TCDC hepatic toxicity; Vitamin E/TCDC, n = 12, 4 h)",Decrease in serum ALT (TCDC hepatic toxicity; [1]),Decrease in serum AST (TCDC hepatic toxicity; [1]),"ALT (TCDC hepatic toxicity; rat, in vivo)","AST (TCDC hepatic toxicity; rat, in vivo)","Bilirubin (TCDC hepatic toxicity; rat, in vivo)","Hepatic injury and mitochondrial lipid peroxidation, overall result (TCDC hepatic toxicity; vitamin E pretreatment, TCDC)","Hepatic alpha tocopherol concentrations, change (in vivo)","Serum vitamin E concentrations, change (in vivo)","Serum vitamin E:total lipid ratios, change (in vivo)",Serum alpha tocopherol (in vivo; 4 h),concentration at 4 h (in vivo; Serum alpha tocopherol),Hepatoprotective and choleretic effects (cholestatic disorders)
"Cc1c(C)c2c(c(C)c1O)CCC(C)(CCCC(C)CCCC(C)CCCC(C)C)O2 (racemic) [Vitamin E, all-rac-alpha tocopherol]",0.13 ± 0.01 delta abs. 233 nm/mg lipid,-0.03 ± 0.02 delta abs. 233 nm/mg lipid,significant reduction,325 ± 78 IU/L,870 ± 278 IU/L,0.2 ± 0.02 mg/dL,approximately 70%,approximately 70%,61 ± 5 IU/L,81 ± 2 IU/L,0.2 ± 0.02 mg/dL,attenuated both the hepatic injury and the severity of mitochondrial lipid peroxidation,significant increases,significant increases,significant increases,13.2 ± 0.7 µg/mL,9900 ± 700 ng/mL,
C[C@H](CCC(=O)O)[C@H]1CC[C@H]2[C@@H]3[C@@H](O)C[C@@H]4C[C@H](O)CC[C@]4(C)[C@H]3CC[C@]12C [ursodeoxycholic acid],,,,,,,,,,,,,,,,,,hepatoprotective as well as choleretic effects
